Results reported in ChEMBL document CHEMBL4346712, “Research progress in the biological activities of 3,4,5-trimethoxycinnamic acid (TMCA) derivatives” (Eur J Med Chem, 2019).
In brackets after ≈: the same amount, converted by molar mass.

Assays:
[1] = Cytotoxicity against […] B16 cells; assay type: functional, cell-based
Plasmodium falciparum [2] = assay: Antiplasmodial activity against blood form of chloroquine-resistant/mefloquine-sensitive Plasmodium falciparum W2 by histidine rich protein assay; assay type: functional, organism-based
Plasmodium falciparum [3] = assay: Antiplasmodial activity against blood form of chloroquine-resistant/mefloquine-sensitive Plasmodium falciparum W2 by [3H]-hypoxanthine incorporation method; assay type: functional, organism-based
[4] = molecular target: Sodium-dependent serotonin transporter (Homo sapiens, UniProt P31645); assay: Displacement of [3H]Imipramine from human 5-HT transporter expressed in HEK-293 cell membranes after 30 mins
Platelet [5] = assay: Antiplatelet activity in rabbit platelet rich plasma assessed as inhibition of PAF-induced platelet aggregation at 150 uM preincubated for 3 mins followed by PAF addition measured after 10 mins relative to control; assay type: functional; details: Oryctolagus cuniculus
Platelet [6] = assay: Antiplatelet activity in rabbit platelet rich plasma assessed as inhibition of arachidonic acid-induced platelet aggregation at 300 uM preincubated for 3 mins followed by arachidonic acid addition measured after 10 mins relative to control; assay type: functional; details: Oryctolagus cuniculus
Platelet [7] = assay: Antiplatelet activity in rabbit platelet rich plasma assessed as inhibition of collagen-induced platelet aggregation at 300 uM preincubated for 3 mins followed by collagen addition measured after 10 mins relative to control; assay type: functional; details: Oryctolagus cuniculus
Platelet [8] = assay: Antiplatelet activity in rabbit platelet rich plasma assessed as inhibition of arachidonic acid-induced platelet aggregation at 150 uM preincubated for 3 mins followed by arachidonic acid addition measured after 10 mins relative to control; assay type: functional; details: Oryctolagus cuniculus
Platelet [9] = assay: Antiplatelet activity in rabbit platelet rich plasma assessed as inhibition of PAF-induced platelet aggregation at 300 uM preincubated for 3 mins followed by PAF addition measured after 10 mins relative to control; assay type: functional; details: Oryctolagus cuniculus
[10] = molecular target: High mobility group protein B1 (Homo sapiens) (UniProt P09429); assay: Inhibition of HMGB1 (unknown origin) at 10 uM by ELISA relative to control
Mus musculus [11] = organism: Mus musculus; assay: Inhibition of HMGB1 in mouse model relative to control; assay type: functional
[12] = Growth inhibition of HUVEC at 5 uM relative to control; assay type: cell-based; details: human, HUVEC cells; read-out: GI
[13] = Growth inhibition of HUVEC; assay type: cell-based; details: human, HUVEC cells
[14] = Cytotoxicity against BHK21 cells assessed as reduction in cell viability after 48 hrs by MTT assay; assay type: cell-based, Mesocricetus auratus, BHK-21; details: hamster
[15] = Selectivity index, ratio of CC50 for BHK21 cells to IC50 for Candida parapsilosis ATCC 22019; assay type: toxicity; details: hamster, read-out: Ratio CC50/IC50
[16] = Selectivity index, ratio of CC50 for BHK21 cells to IC50 for Candida albicans ATCC 10231; assay type: toxicity; details: hamster, read-out: Ratio CC50/IC50
[17] = Selectivity index, ratio of CC50 for BHK21 cells to IC50 for Candida tropicalis ATCC 750; assay type: toxicity; details: hamster, read-out: Ratio CC50/IC50
Candida parapsilosis = assay: Antifungal activity against Candida parapsilosis ATCC 22019 after 24 hrs by CLSI broth microdilution method; assay type: functional, organism-based; details: Lodderomyces parapsilosis, ATCC 22019, 24 h
Candida tropicalis = assay: Antifungal activity against Candida tropicalis ATCC 750 after 24 hrs by CLSI broth microdilution method; assay type: functional, organism-based; details: ATCC 750, 24 h
[18] = Selectivity index, ratio of CC50 for BHK21 cells to IC50 for Staphylococcus aureus ATCC 6538; assay type: toxicity; details: hamster, read-out: Ratio CC50/IC50
Staphylococcus aureus [19] = assay: Antibacterial activity against Staphylococcus aureus ATCC 6538 after 24 hrs by CLSI broth microdilution method; assay type: functional, organism-based; details: ATCC 6538, 24 h
Candida albicans = assay: Antifungal activity against Candida albicans ATCC 10231 after 24 hrs by CLSI broth microdilution method; assay type: functional, organism-based; details: ATCC 10231, 24 h
[20] = Selectivity index, ratio of CC50 for BHK21 cells to IC50 for Candida glabrata ATCC 90030; assay type: toxicity; details: hamster, read-out: Ratio CC50/IC50
Staphylococcus aureus [21] = assay: Potency index, ratio of piplartine IC50 to test compound IC50 for Staphylococcus aureus ATCC 6538; assay type: functional
Nakaseomyces glabratus = assay: Antifungal activity against Candida glabrata ATCC 90030 after 24 hrs by CLSI broth microdilution method; assay type: functional, organism-based; details: ATCC 90030, 24 h
[22] = molecular target: Platelet-activating factor receptor (Homo sapiens) (UniProt P25105); assay: Inhibition of PAF receptor (unknown origin) assessed as reduction in receptor to rabbit platelet binding at 20 ug/ml relative to control
Platelet [23] = assay: Antiplatelet activity in rabbit platelet rich plasma assessed as inhibition of PAF-induced platelet aggregation at 50 ug/ml relative to control; assay type: functional; details: Oryctolagus cuniculus
Platelet [24] = assay: Antiplatelet activity in rabbit platelet rich plasma assessed as inhibition of ADP-induced platelet aggregation at 30 ug/ml relative to control; assay type: functional; details: Oryctolagus cuniculus
[25] = molecular target: 5-hydroxytryptamine receptor 7 (Homo sapiens, UniProt P34969); assay: Displacement of [3H]LSD from human 5-HT7 receptor expressed in CHO-K1 cell membranes after 60 mins
[26] = molecular target: 5-hydroxytryptamine receptor 6 (Homo sapiens, UniProt P50406); assay: Displacement of [3H]LSD from human 5-HT6 receptor expressed in CHO-K1 cell membranes after 60 mins
Mus musculus [27] = assay: Antinarcotic activity in morphine-dependent C57BL/6 mouse assessed as inhibition of naloxone-induced jumping behavior in mouse at 5 mg/kg , ip after 30 mins relative to control; assay type: functional; details: C57BL/6, ip, 0.5 h
[28] = molecular target: T1, Bifunctional epoxide hydrolase 2 (Homo sapiens) (UniProt P34913); assay: Competitive inhibition of soluble epoxide hydrolase (unknown origin) at 100 uM relative to control
T1 sequence (whole entry): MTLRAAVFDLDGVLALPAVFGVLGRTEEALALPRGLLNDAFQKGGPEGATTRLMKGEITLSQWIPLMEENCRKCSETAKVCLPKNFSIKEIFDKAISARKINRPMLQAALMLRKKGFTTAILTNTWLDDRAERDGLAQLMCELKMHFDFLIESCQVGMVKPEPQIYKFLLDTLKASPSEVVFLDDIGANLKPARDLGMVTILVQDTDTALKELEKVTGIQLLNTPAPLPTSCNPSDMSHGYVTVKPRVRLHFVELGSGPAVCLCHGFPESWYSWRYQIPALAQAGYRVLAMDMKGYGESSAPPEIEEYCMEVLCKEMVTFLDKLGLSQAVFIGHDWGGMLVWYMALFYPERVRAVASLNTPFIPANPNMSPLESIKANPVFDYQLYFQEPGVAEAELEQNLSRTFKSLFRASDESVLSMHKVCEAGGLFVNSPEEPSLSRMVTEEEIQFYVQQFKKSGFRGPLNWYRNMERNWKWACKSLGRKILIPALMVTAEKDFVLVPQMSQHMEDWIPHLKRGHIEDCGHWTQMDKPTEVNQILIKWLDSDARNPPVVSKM

[29] = molecular target: T2, Bifunctional epoxide hydrolase 2 (Homo sapiens, UniProt P34913); assay: Competitive inhibition of soluble epoxide hydrolase (unknown origin)
T2 sequence (P34913 whole entry): T1 sequence (whole entry)

Chain of Platelet-activating factor receptor (Homo sapiens) (P25105 whole entry): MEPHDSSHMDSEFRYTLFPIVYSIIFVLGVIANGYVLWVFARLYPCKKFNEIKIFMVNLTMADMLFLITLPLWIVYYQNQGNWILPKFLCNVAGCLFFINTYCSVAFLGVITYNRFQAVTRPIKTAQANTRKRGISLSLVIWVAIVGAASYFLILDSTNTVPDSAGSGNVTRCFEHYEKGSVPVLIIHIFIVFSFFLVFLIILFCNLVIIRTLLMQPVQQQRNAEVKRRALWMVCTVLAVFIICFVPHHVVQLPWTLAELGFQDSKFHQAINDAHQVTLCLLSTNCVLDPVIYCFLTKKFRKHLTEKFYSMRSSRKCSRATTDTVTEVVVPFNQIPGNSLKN
Chain of Sodium-dependent serotonin transporter (P31645 whole entry): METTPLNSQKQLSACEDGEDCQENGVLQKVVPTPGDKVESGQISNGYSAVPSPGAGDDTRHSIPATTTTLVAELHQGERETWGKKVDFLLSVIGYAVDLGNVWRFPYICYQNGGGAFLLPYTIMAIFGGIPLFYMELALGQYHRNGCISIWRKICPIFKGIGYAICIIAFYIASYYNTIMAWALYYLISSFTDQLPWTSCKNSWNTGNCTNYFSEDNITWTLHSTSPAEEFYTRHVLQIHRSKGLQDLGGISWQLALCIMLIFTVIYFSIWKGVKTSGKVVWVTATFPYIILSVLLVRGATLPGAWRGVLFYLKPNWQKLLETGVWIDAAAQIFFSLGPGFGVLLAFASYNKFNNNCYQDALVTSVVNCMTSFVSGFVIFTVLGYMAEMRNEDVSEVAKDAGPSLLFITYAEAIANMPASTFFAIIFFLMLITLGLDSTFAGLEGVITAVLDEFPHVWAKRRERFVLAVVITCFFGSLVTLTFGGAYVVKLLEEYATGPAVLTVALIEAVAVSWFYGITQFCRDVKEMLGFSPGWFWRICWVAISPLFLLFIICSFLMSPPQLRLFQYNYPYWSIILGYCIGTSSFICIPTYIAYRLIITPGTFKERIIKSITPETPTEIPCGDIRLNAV
Chain of High mobility group protein B1 (Homo sapiens) (P09429 whole entry): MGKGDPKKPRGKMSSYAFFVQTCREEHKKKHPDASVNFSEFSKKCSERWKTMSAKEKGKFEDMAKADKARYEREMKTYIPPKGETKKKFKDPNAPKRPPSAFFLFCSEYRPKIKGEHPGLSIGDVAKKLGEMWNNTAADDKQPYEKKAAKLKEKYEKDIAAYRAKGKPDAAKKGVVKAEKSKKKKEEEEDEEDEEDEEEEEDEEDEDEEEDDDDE
Chain of 5-hydroxytryptamine receptor 7 (P34969 whole entry): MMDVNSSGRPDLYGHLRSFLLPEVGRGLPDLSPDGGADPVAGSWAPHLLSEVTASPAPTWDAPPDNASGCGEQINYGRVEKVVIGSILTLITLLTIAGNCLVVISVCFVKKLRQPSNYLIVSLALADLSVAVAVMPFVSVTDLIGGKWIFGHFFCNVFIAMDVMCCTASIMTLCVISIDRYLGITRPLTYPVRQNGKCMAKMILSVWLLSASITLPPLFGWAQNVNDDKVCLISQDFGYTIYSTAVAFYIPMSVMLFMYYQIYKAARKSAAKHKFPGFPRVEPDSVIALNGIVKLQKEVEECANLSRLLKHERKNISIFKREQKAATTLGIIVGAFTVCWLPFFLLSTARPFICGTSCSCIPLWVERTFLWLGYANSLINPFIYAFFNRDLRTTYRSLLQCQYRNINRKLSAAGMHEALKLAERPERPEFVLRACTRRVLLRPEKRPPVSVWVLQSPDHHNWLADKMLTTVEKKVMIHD
Chain of 5-hydroxytryptamine receptor 6 (P50406 whole entry): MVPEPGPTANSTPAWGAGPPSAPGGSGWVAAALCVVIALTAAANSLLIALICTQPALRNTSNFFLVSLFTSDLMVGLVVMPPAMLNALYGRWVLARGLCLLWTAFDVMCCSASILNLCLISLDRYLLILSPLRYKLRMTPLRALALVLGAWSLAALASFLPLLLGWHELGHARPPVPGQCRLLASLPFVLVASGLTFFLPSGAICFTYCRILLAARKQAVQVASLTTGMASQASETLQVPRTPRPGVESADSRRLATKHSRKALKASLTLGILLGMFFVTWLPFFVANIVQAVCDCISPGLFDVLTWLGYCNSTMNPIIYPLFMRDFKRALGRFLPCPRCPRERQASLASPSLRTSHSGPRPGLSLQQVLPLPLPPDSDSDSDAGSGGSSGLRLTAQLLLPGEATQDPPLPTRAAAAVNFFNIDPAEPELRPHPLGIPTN

COc1cc2oc(=O)cc(COC(=O)/C=C/c3cc(OC)c(OC)c(OC)c3)c2cc1OC
IC50 [1]: 6.74 µg/mL (≈ 14.8 µM)

COc1cc(/C=C/C(=O)OCC(=O)c2ccc(Cl)cc2)cc(OC)c1OC
IC50 (Plasmodium falciparum [2]): 128 µM | IC50 (Plasmodium falciparum [3]): 128 µM

COc1cc(/C=C/C(=O)O)cc(OC)c1OC [SINAPIC ACID METHYL ETHER]
IC50 [4]: > 10 µM

CC(=O)Oc1ccccc1C(=O)O [ASPIRIN]
inhibition at 150 µM (Platelet [5]): 0.3% | inhibition at 300 µM (Platelet [6]): 100% | inhibition at 300 µM (Platelet [7]): 5.8% | inhibition at 150 µM (Platelet [8]): 75% | inhibition at 300 µM (Platelet [9]): 0.3%

COc1cc(/C=C/C(=O)Oc2ccc3[nH]c4ccccc4c3c2)cc(OC)c1OC
inhibition [10]: 70.2% | inhibition (INH) (Mus musculus [11]): 58.9%

COc1cc(/C=C/C(=O)Nc2ccc(NC(=O)[C@@H](O)[C@H](N)CCc3ccccc3)cc2)cc(OC)c1OC
inhibition at 5 µM [12]: > 98% | GI50 [13]: 0.85 µM

O=C(/C=C/c1ccccc1)NNC(=O)c1ccccc1
CC50 at 48 h [14]: 232 µM | selectivity ratio [15]: 0.61 | selectivity ratio [16]: 0.61 | selectivity ratio [17]: 0.61 | IC50 (Candida parapsilosis): 376 µM | IC50 (Candida tropicalis): 376 µM | selectivity ratio [18]: 2.71 | IC50 (Staphylococcus aureus [19]): 85.2 µM | IC50 (Candida albicans): 376 µM | selectivity ratio [20]: 0.61 | Ratio IC50 (Staphylococcus aureus [21]): 3 | IC50 (Nakaseomyces glabratus): 376 µM

COc1cc(/C=C/C(=O)NCCc2ccc(O)cc2)cc(OC)c1OC
inhibition [22]: 12% | inhibition at 50 µg/mL (Platelet [23]): 28.8% | inhibition at 30 µg/mL (Platelet [24]): 24.4%

CCCCCCCCCCNC(=O)/C=C/c1cc(OC)c(OC)c(OC)c1
IC50 [25]: 5.6 µM | IC50 [26]: 5 µM | inhibition in vivo at 5 mg/kg (Mus musculus [27]): 80% | IC50 [4]: 6.7 µM

COc1cc(/C=C/C(=O)OC[C@H]2O[C@H](O[C@@]3(CO)O[C@H](CO)[C@@H](O)[C@@H]3OC(=O)/C=C/c3cc(OC)c(OC)c(OC)c3)[C@H](O)[C@@H](O)[C@@H]2O)cc(OC)c1O
inhibition [28]: 97.4% | IC50 [29]: 27.2 µM

COc1cc(/C=C/C(=O)O[C@H]2[C@H](O)[C@@H](CO)O[C@@]2(CO)O[C@H]2O[C@H](COC(=O)c3ccc(O)cc3)[C@@H](O)[C@H](O)[C@H]2O)cc(OC)c1OC
inhibition [28]: > 100% | IC50 [29]: 9.1 µM

COc1ccc(CCNC(=O)/C=C/c2cc(OC)c(OC)c(OC)c2)cc1
inhibition [22]: 19% | inhibition at 50 µg/mL (Platelet [23]): 39.3% | inhibition at 30 µg/mL (Platelet [24]): 29.1%
